Data reported in ChEMBL document CHEMBL3044664, “Synthesis of coumarin-based 1,3,4-oxadiazol-2ylthio-N-phenyl/benzothiazolyl acetamides as antimicrobial and antituberculosis agents” (2013).
Converted amounts (≈) assume the structure as drawn.

How the values were obtained:
Format in all cases: functional
[1] = test system: Aspergillus niger; assay: Antifungal activity against Aspergillus niger MTCC 282 assessed as growth inhibition by agar streak dilution method
[2] = test system: Klebsiella pneumoniae; assay: Antibacterial activity against Klebsiella pneumoniae MTCC 109 assessed as growth inhibition by agar streak dilution method
[3] = test system: Proteus vulgaris; assay: Antibacterial activity against Proteus vulgaris MTCC 1771 assessed as growth inhibition by agar streak dilution method
[4] = test system: Pseudomonas aeruginosa; assay: Antibacterial activity against Pseudomonas aeruginosa MTCC 741 assessed as growth inhibition by agar streak dilution method
[5] = test system: Escherichia coli; assay: Antibacterial activity against Escherichia coli MTCC 739 assessed as growth inhibition by agar streak dilution method
[6] = test system: Mycobacterium tuberculosis; assay: Antitubercular activity against Mycobacterium tuberculosis H37Rv assessed as growth inhibition by BACTEC MGIT method
[7] = test system: Shigella flexneri; assay: Antibacterial activity against Shigella flexneri MTCC 1457 assessed as growth inhibition by agar streak dilution method
[8] = test system: Bacillus cereus; assay: Antibacterial activity against Bacillus cereus MTCC 430 assessed as growth inhibition by agar streak dilution method
[9] = test system: Salmonella typhi; assay: Antibacterial activity against Salmonella enterica subsp. enterica serovar Typhi MTCC 733 assessed as growth inhibition by agar streak dilution method
[10] = test system: Mycobacterium tuberculosis; assay: Antitubercular activity against Mycobacterium tuberculosis H37Rv assessed as growth inhibition at MIC by Lowenstein-Jensen method
[11] = test system: Aspergillus fumigatus; assay: Antifungal activity against Aspergillus fumigatus MTCC 343 assessed as growth inhibition by agar streak dilution method
[12] = test system: Mycobacterium tuberculosis; assay: Antitubercular activity against Mycobacterium tuberculosis H37Rv assessed as growth inhibition by Lowenstein-Jensen method
[13] = test system: Candida albicans; assay: Antifungal activity against Candida albicans MTCC 183 assessed as growth inhibition by agar streak dilution method
[14] = test system: Staphylococcus aureus; assay: Antibacterial activity against Staphylococcus aureus MTCC 96 assessed as growth inhibition by agar streak dilution method
[15] = test system: Aspergillus clavatus; assay: Antifungal activity against Aspergillus clavatus MTCC 1323 assessed as growth inhibition by agar streak dilution method
[16] = test system: Mycobacterium tuberculosis; assay: Antitubercular activity against Mycobacterium tuberculosis H37Rv assessed as growth inhibition at MIC by BACTEC MGIT method

Row | Structure (SMILES) | MIC [1] | MIC [2] | MIC [3] | MIC [4] | MIC [5] | MIC [6] | MIC [7] | MIC [8] | MIC [9] | growth inhibition (GI) [10] | MIC [11] | MIC [12] | MIC [13] | MIC [14] | MIC [15] | growth inhibition (GI) [16]
1 | O=C(CSc1nnc(-c2cc3ccccc3oc2=O)o1)Nc1ccc([N+](=O)[O-])cc1 | 100 µg/mL (≈ 236 µM) | 100 µg/mL (≈ 236 µM) | 25 µg/mL (≈ 58.9 µM) | > 100 µg/mL | 50 µg/mL (≈ 118 µM) | > 6.25 µg/mL | 100 µg/mL (≈ 236 µM) | 100 µg/mL (≈ 236 µM) | 100 µg/mL (≈ 236 µM) | 94% | 50 µg/mL (≈ 118 µM) | 500 µg/mL (≈ 1180 µM) | 12.5 µg/mL (≈ 29.5 µM) | 100 µg/mL (≈ 236 µM) | 100 µg/mL (≈ 236 µM) | –
2 | N#Cc1ccc(NC(=O)CSc2nnc(-c3cc4ccccc4oc3=O)o2)cc1 | > 100 µg/mL | 50 µg/mL (≈ 124 µM) | 100 µg/mL (≈ 247 µM) | 100 µg/mL (≈ 247 µM) | 50 µg/mL (≈ 124 µM) | > 6.25 µg/mL | > 100 µg/mL | 100 µg/mL (≈ 247 µM) | 100 µg/mL (≈ 247 µM) | 95% | > 100 µg/mL | 200 µg/mL (≈ 495 µM) | 50 µg/mL (≈ 124 µM) | 6.25 µg/mL (≈ 15.5 µM) | > 100 µg/mL | –
3 | Cc1ccc(NC(=O)CSc2nnc(-c3cc4ccccc4oc3=O)o2)cc1 | 100 µg/mL (≈ 254 µM) | > 100 µg/mL | > 100 µg/mL | > 100 µg/mL | > 100 µg/mL | > 6.25 µg/mL | > 100 µg/mL | 50 µg/mL (≈ 127 µM) | 100 µg/mL (≈ 254 µM) | 94% | > 100 µg/mL | 500 µg/mL (≈ 1270 µM) | > 100 µg/mL | 100 µg/mL (≈ 254 µM) | 100 µg/mL (≈ 254 µM) | –
4 | COc1ccc(NC(=O)CSc2nnc(-c3cc4ccccc4oc3=O)o2)cc1 | 100 µg/mL (≈ 244 µM) | 100 µg/mL (≈ 244 µM) | 100 µg/mL (≈ 244 µM) | 25 µg/mL (≈ 61.1 µM) | 50 µg/mL (≈ 122 µM) | > 6.25 µg/mL | 100 µg/mL (≈ 244 µM) | 100 µg/mL (≈ 244 µM) | 25 µg/mL (≈ 61.1 µM) | 97% | 100 µg/mL (≈ 244 µM) | 50 µg/mL (≈ 122 µM) | 100 µg/mL (≈ 244 µM) | 6.25 µg/mL (≈ 15.3 µM) | 50 µg/mL (≈ 122 µM) | –
5 | CCOc1ccc(NC(=O)CSc2nnc(-c3cc4ccccc4oc3=O)o2)cc1 | 100 µg/mL (≈ 236 µM) | 100 µg/mL (≈ 236 µM) | 100 µg/mL (≈ 236 µM) | 6.25 µg/mL (≈ 14.8 µM) | 50 µg/mL (≈ 118 µM) | > 6.25 µg/mL | 100 µg/mL (≈ 236 µM) | 100 µg/mL (≈ 236 µM) | 50 µg/mL (≈ 118 µM) | 98% | 100 µg/mL (≈ 236 µM) | 25 µg/mL (≈ 59 µM) | 50 µg/mL (≈ 118 µM) | 25 µg/mL (≈ 59 µM) | 100 µg/mL (≈ 236 µM) | –
6 | CC(=O)Nc1ccc(NC(=O)CSc2nnc(-c3cc4ccccc4oc3=O)o2)cc1 | > 100 µg/mL | > 100 µg/mL | > 100 µg/mL | 50 µg/mL (≈ 115 µM) | > 100 µg/mL | > 6.25 µg/mL | > 100 µg/mL | 100 µg/mL (≈ 229 µM) | > 100 µg/mL | 95% | > 100 µg/mL | 250 µg/mL (≈ 573 µM) | 100 µg/mL (≈ 229 µM) | 50 µg/mL (≈ 115 µM) | 50 µg/mL (≈ 115 µM) | –
7 | O=C(CSc1nnc(-c2cc3ccccc3oc2=O)o1)Nc1nc2ccccc2s1 | > 100 µg/mL | > 100 µg/mL | 100 µg/mL (≈ 229 µM) | 50 µg/mL (≈ 115 µM) | > 100 µg/mL | > 6.25 µg/mL | 100 µg/mL (≈ 229 µM) | 100 µg/mL (≈ 229 µM) | 100 µg/mL (≈ 229 µM) | 95% | > 100 µg/mL | 500 µg/mL (≈ 1150 µM) | > 100 µg/mL | 100 µg/mL (≈ 229 µM) | > 100 µg/mL | –
8 | O=C(CSc1nnc(-c2cc3ccccc3oc2=O)o1)Nc1ccccc1 | > 100 µg/mL | > 100 µg/mL | > 100 µg/mL | > 100 µg/mL | 100 µg/mL (≈ 264 µM) | > 6.25 µg/mL | > 100 µg/mL | 100 µg/mL (≈ 264 µM) | > 100 µg/mL | 95% | > 100 µg/mL | 500 µg/mL (≈ 1320 µM) | 100 µg/mL (≈ 264 µM) | > 100 µg/mL | > 100 µg/mL | –
9 | O=C(CSc1nnc(-c2cc3ccccc3oc2=O)o1)Nc1ccc(Cl)cc1 | 25 µg/mL (≈ 60.4 µM) | 100 µg/mL (≈ 242 µM) | 100 µg/mL (≈ 242 µM) | 100 µg/mL (≈ 242 µM) | 25 µg/mL (≈ 60.4 µM) | > 6.25 µg/mL | 50 µg/mL (≈ 121 µM) | 25 µg/mL (≈ 60.4 µM) | 100 µg/mL (≈ 242 µM) | 96% | 25 µg/mL (≈ 60.4 µM) | 100 µg/mL (≈ 242 µM) | 50 µg/mL (≈ 121 µM) | 50 µg/mL (≈ 121 µM) | 100 µg/mL (≈ 242 µM) | –
10 | O=C(CSc1nnc(-c2cc3ccccc3oc2=O)o1)Nc1ccc(Br)cc1 | 50 µg/mL (≈ 109 µM) | 100 µg/mL (≈ 218 µM) | 100 µg/mL (≈ 218 µM) | 50 µg/mL (≈ 109 µM) | 12.5 µg/mL (≈ 27.3 µM) | > 6.25 µg/mL | 100 µg/mL (≈ 218 µM) | 12.5 µg/mL (≈ 27.3 µM) | 100 µg/mL (≈ 218 µM) | 97% | 100 µg/mL (≈ 218 µM) | 62.5 µg/mL (≈ 136 µM) | 50 µg/mL (≈ 109 µM) | 50 µg/mL (≈ 109 µM) | 100 µg/mL (≈ 218 µM) | –
11 | O=C(CSc1nnc(-c2cc3ccccc3oc2=O)o1)Nc1ccc(F)cc1 | 50 µg/mL (≈ 126 µM) | 100 µg/mL (≈ 252 µM) | 100 µg/mL (≈ 252 µM) | 100 µg/mL (≈ 252 µM) | 50 µg/mL (≈ 126 µM) | > 6.25 µg/mL | 50 µg/mL (≈ 126 µM) | 50 µg/mL (≈ 126 µM) | 50 µg/mL (≈ 126 µM) | 99% | 50 µg/mL (≈ 126 µM) | 25 µg/mL (≈ 62.9 µM) | 25 µg/mL (≈ 62.9 µM) | 12.5 µg/mL (≈ 31.5 µM) | 100 µg/mL (≈ 252 µM) | –
12 | O=C(CSc1nnc(-c2cc3ccccc3oc2=O)o1)Nc1ccc(I)cc1 | 100 µg/mL (≈ 198 µM) | 100 µg/mL (≈ 198 µM) | 50 µg/mL (≈ 99 µM) | 100 µg/mL (≈ 198 µM) | 100 µg/mL (≈ 198 µM) | > 6.25 µg/mL | 100 µg/mL (≈ 198 µM) | 100 µg/mL (≈ 198 µM) | > 100 µg/mL | 99% | 100 µg/mL (≈ 198 µM) | 12.5 µg/mL (≈ 24.7 µM) | 100 µg/mL (≈ 198 µM) | 100 µg/mL (≈ 198 µM) | 100 µg/mL (≈ 198 µM) | –
13 | CC[C@@H](CO)NCCN[C@@H](CC)CO [ETHAMBUTOL] | – | – | – | – | – | 3.12 µg/mL (≈ 15.3 µM) | – | – | – | – | – | – | – | – | – | 99%
14 | NNC(=O)c1ccncc1 [ISONIAZID] | – | – | – | – | – | 0.2 µg/mL (≈ 1.46 µM) | – | – | – | – | – | – | – | – | – | 99%
15 | NC(=O)c1cnccn1 [PYRAZINAMIDE] | – | – | – | – | – | 6.25 µg/mL (≈ 50.8 µM) | – | – | – | – | – | – | – | – | – | 99%
16 | CO[C@H]1/C=C/O[C@@]2(C)Oc3c(C)c(O)c4c(O)c(c(/C=N/N5CCN(C)CC5)c(O)c4c3C2=O)NC(=O)/C(C)=C\C=C\[C@H](C)[C@H](O)[C@@H](C)[C@@H](O)[C@@H](C)[C@H](OC(C)=O)[C@@H]1C [RIFAMPIN] | – | – | – | – | – | 0.25 µg/mL (≈ 0.304 µM) | – | – | – | – | – | – | – | – | – | 99%
